“Also recorded” adds a separate entry of the source.
Legend:
[1] = tested on: pDR5::LUC seedlings; test: Luciferase assay in pDR5::LUC auxin marker line; format: in vivo, Arabidopsis; conditions: 1 μM NF, 20 μM anchorene
Protocol: Luciferase activity was assayed as previously described. Briefly, 1 mL of 5 mM Potassium Luciferin (Gold Biotechnology®) dissolved in water was directly applied to pDR5:LUC seedlings grown vertically on treated half strength MS plates. The luciferin solution was allowed to dry for 5-10 minutes in the dark, at room temperature. Seedlings were then imaged using a Lumazone™ CA automated Chemiluminescence system. Seven minute exposure times were used.
A pDR5::LUC line, which marks LR prebranch sites, was used to track ANR development. […] ANR primordia initiation was observed as early as 3 dps, in anchorene treated pDR5::LUC and 158 pDR5rev::GFP seedling (FIGS. 5A-C).

[2] = tested on: maize; test: Maize hydroponic growth with anchorene; format: in vivo
Protocol: FIGS. 20A-C show anchorene promotes root growth in maize according to one or more embodiments of the present disclosure. (A) represents the timeline for the hydroponic system for maize growing and anchorene treatment. […] (C) is a histogram quantifying the root and shoot length (cm) of maize seedlings with or without anchorene treatment
Arabidopsis is a dicot model plant. To test the effect of anchorene on monocot plant and crops, the biological functions of anchorene was evaluated on two important crops, rice and maize, under hydroponic conditions. Excitingly, a clear effect of anchorene on rice primary root and crown root growth (FIGS. 19B-E). A clear effect on shoot growth was not observed during this period, which might indicate anchorene specifically regulates root architecture. Similar effect was also examined in maize (FIGS. 20B-C). […] Root growth promoting not only could better anchor the plant, but also increase the volume of the plant root which will facilitate the water and nutrient absorption for the plant.

[3] = tested on: PIN3; test: PIN3-GFP fluorescence in ANR primordia (pPIN3::PIN3-GFP marker line); format: in vivo, Arabidopsis; conditions: 20 μM anchorene
Protocol: (§1) For fluorescence intensity quantification of pDR5Rev::GFP and pPIN3::PIN3-GFP marker lines, ImageJ software (rsbweb.nih.gov/ij/) was used after taking confocal microscopy photos. All calculations are background subtracted.
To determine if the effect of anchorene on ANR development is caused by changes in auxin distribution, the activity of anchorene in the presence of NPA was evaluated. […] Vertical grown 5 DAG seedlings on half MSO with indicated treatments were analyzed. The orientation of root growth was measured and then was assigned to one of twelve 30° sectors. […] The auxin efflux carrier PIN3 plays an important role in LR initiation and emergence. Therefore, the effect of anchorene on PIN3 using the pPIN3::PIN3-GFP marker line was examined.

[4] = tested on: pDR5rev::GFP seedlings; test: Confocal microscopy of pDR5rev::GFP auxin marker line; format: in vivo, Arabidopsis
Description: To examine pDR5Rev::GFP fluorescence at the collet region, live seedlings were directly used for laser scanning confocal microscopy (Zeiss LSM 510 microscope) examination.
as §1

[5] = tested on: rice (Nipponbare); test: Rice hydroponic growth with anchorene; format: in vivo; conditions: 20 μM anchorene, 6 days
Protocol: FIGS. 19A-E show anchorene promotes root growth in rice according to one or more embodiments of the present disclosure. […] Color photographs (B) and (C) show the comparison of the whole rice plant (B) and the root structure (C) under Mock and Anchorene treated conditions. (D) and (E) show quantification (cm) of the primary root length (D) and shoot length (E) under Mock and Anchorene treated conditions. 20 μM anchorene was used. The Nipponbare ecotype rice seeds were germinated for 4 days, and then transferred to Hoagland media hydroponic system with or without anchorene treatment for another 6 days. Anchorene was changed every 2 days for three times.
For rice, sterilized Nipponbare seeds were kept at 30° C. in darkness for 1 day to stimulate germination and transferred to Petri dishes with half strength Murashige and Skoog (MS) media (with 0.5 g/L MES, pH 5.7) and autoclaved filter paper. Dishes were incubated in darkness for 2 days then exposed to light for 1 day in PERCIVAL® growth chamber (12 h light/12 h dark, 26° C., 55% humidity, 500 umol.m^−2.s^−1). Uniform, healthy rice seedlings were transferred to hydroponic culture (Hoagland) supplied with acetone (Mock) or 20 μM anchorene. […] Crown roots number, as well as shoot and root length and fresh weight were recorded to perform the phenotyping.

[6] = tested on: Arabidopsis seedlings (lateral roots); test: Lateral root emergence and lateral root capacity; format: in vivo
Description: ANRs were counted in seedlings vertically grown on half strength MS (with 0.5% sucrose +1% agar, 0.5 g/L MES, pH 5.7) media 8 days post-stratification (dps) using a dissection microscope. To investigate ANR formation after root apical meristems (RAM) excision (ANR-RE), RAM of seedlings were excised using sterile scalpels at 5 dps and then grown for another 3 days prior to counting the number of emerged ANRs. RAM of seedlings were excised at 8 dps and then grown for another 3 days prior to counting the number of emerged LRs. For determining the effect of anchorene on lateral roots, the number of emerged lateral roots were counted using a dissection microscope at 8 dps. For primary root length measurements, seedlings were measured using the publicly available ImageJ software (downloaded from rsbweb.nih.gov/ij/) after taking digital photographs. For adventitious root assay, the number of emerged adventitious roots per plant were counted after 5 days of treatment on plates with or without anchorene.

C\C(C=O)=C/C=C/C=C(\C)C=O [anchorene, 12,12′-diapocarotene-12,12′-dial]
LUC signal in the collet [1]: intensified the LUC signal | growth of primary root and lateral roots in maize [2]: greatly promoted | PIN3 levels (PIN3-GFP fluorescent intensity in ANR primordia) [3]: significantly increased | GFP signal in ANR primordia, combined NF/anchorene treatment ([4]; 1 μM NF plus 20 μM anchorene): clearly enhanced | GFP signal at the collet / ANR primordia ([4]; single compound, 20 μM anchorene, 1 μM NF): strong GFP signal | rice primary root and crown root growth [5]: clear effect | rice shoot growth [5]: not observed | lateral root emergence ([6]; 5 and 10 μM anchorene, 8 dps): no effect; also recorded: did not affect | LR capacity in untreated seedlings ([6]; LR No. after RAM excision, 20 μM anchorene): inhibits LR capacity | LR formation (LR capacity) after D15 treatment ([6]; LR No. after RAM excision, 20 μM anchorene and 100 μl D15): no significant effect | LR length ([6]; anchorene application (FIGS. 3E-F)): did not affect

— patent publication US11523610B2, “Regulating plant growth using a diapocarotenoid” (King Abdullah University of Science and Technology, priority 2018, dated 2022)
